pIC50: −log10 of the molar value. Where two headings read alike, the source gives them in different places.
Assays:
[1] = target: T1, human organic cation transporter 3 (hOCT3) (Homo sapiens, UniProt O75751); experiment: Histamine incorporation experiment in HEK293 cells expressing hOCT3 (OCT3 inhibition activity); type: cell-based; conditions: control curve
T1 construct: expressed in transfected cells; host or cells: HEK293
T1 sequence (O75751 1-556): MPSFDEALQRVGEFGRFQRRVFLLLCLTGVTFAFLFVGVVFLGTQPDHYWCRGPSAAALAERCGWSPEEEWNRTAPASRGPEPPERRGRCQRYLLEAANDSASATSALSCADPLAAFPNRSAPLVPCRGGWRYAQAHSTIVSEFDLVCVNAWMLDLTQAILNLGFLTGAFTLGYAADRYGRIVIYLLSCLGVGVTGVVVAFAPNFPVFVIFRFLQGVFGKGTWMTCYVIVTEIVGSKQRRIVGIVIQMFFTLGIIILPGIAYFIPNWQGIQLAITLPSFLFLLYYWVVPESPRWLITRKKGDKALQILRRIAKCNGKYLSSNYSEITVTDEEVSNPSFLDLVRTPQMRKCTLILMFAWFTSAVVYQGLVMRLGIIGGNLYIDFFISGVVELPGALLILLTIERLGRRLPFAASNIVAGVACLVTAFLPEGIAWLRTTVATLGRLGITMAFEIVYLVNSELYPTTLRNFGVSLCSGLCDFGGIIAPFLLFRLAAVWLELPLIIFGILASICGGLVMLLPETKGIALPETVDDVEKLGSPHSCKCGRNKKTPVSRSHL

[2] = target: T2, OCT3 (Homo sapiens, UniProt O75751); conditions: Sata et al., J Pharmacol Exp Ther. 2005, cited from earlier work
T2 sequence (O75751 1-556): T1 sequence (O75751 1-556)

[3] = target: T1, human organic cation transporter 3 (hOCT3); experiment: Histamine incorporation experiment in HEK293 cells expressing hOCT3 (OCT3 inhibition activity); type: cell-based; conditions: Compound Concentration 10 μM
Method: In order to measure an activity that inhibits OCT3 from incorporating a substrate (OCT3 inhibition activity) for each compound, histamine incorporation experiments as described below were performed.
Histamine incorporation experiments were performed in accordance with a method disclosed in Br J Pharmacol. 2002; 136(6): 829-836. In the experiments, HEK293 cells were used. The HEK293 cell is a human embryonal renal cell strain expressing human organic cation transporter 3 (hOCT3). The HEK 293 cells were inoculated onto 24-well plates at 1.5×10^5 cells/well, and were cultivated overnight in a carbon dioxide incubator. Test substances were dissolved in 100% DMSO solution and then dissolved in HBSS-HEPES solution (buffer solution prepared by dissolving 9.7 g Hank's Balanced Salt, 1.4% sodium bicarbonate 25 mL, and 1M HEPES 25 mL in 940 mL ultra pure water, and by adjusting to pH7.4 with 1M sodium hydroxide). After removing culture media for cell culture, pretreatment was performed for 5 minutes with 1 mL HBSS-HEPES solution. Then, the test substance and [3H]histamine (final concentration 100 nM) were added to the cells and reacted for 1 minute at room temperature. After the reaction was completed, the reaction was stopped by ice-cooled HBSS-HEPES solution, extracellular fluid was aspirated by an aspirator, and then the cells were washed twice with HBSS-HEPES. After washing, the cells were dissolved in 0.5M sodium hydroxide solution. The amount of histamine in the cells was found by measuring a radioactivity in a cell lysis solution by a liquid scintillation counter. Protein content in the cells was measured by Lowry method (J Biol Chem. 1951; 193(1): 265-75) by using the cell lysis solution, and translated into histamine incorporation amount per protein content for each experiment. A histamine incorporation rate (%) in the presence of 30 μM of the test substance was calculated by regarding a histamine incorporation amount in a case of no incorporation inhibitor as 100% (control) of histamine incorporation rate. A value (%) obtained by subtracting the histamine incorporation rate from 100(%) was calculated as an OCT3 inhibition rate (%).
Note that a histamine incorporation rate (%) in the presence of 10 μM of the test substance was calculated by regarding a histamine incorporation amount in a case of no incorporation inhibitor as 100% (control) of histamine incorporation rate. A value (%) obtained by subtracting the histamine incorporation rate from 100(%) was calculated as an OCT3 inhibition rate (%). […]

[4] = various diagnostic methods in clinical trials, WO 01/93863; cited from earlier work
[5] = system: Male ddY-strain mice; experiment: Forced swimming test (akinesis time); type: in vivo, mouse; conditions: low dose administered independently: imipramine 4 mg/kg or OCT3 inhibitor 0.25 μl/hr
Source text: In the forced swimming test, forced swimming is loaded on a mouse or rat as a test animal in a test tank from which the mouse or rat cannot escape. Then, after an escape behavior of the test animal, an akinesis (a state in which the test animal is floating with only its face out over the surface of the water and without moving legs) is confirmed. When the test animal is put in the test tank again after 24 or more hours later, the akinesis is expressed earlier than the first test. Duration of the akinesis within a predetermined time period (generally about 5 minutes) is reproduced relatively accurately.
Specifically, a test is performed as follows.
Male ddY-strain mice (Japan SLC, Inc.) having body weights of 28 to 33 g are used for an experiment. […] In the first forced swimming test, all of the laboratory mice are made to swim in a glass cylinder (diameter 15.5 cm, depth 17 cm, depth of water 12 cm, temperature of water 25° C.) for 300 seconds, the akinesis time are measured, and the mice are divided into experimental groups (OCT3 inhibitor administration group, positive control group, and negative control group) so that average values of these groups are almost identical. […] After one week from the injection, the mice are made to swim in the cylinder again for 300 seconds, and the akinesis time is measured for each of the mice. […]

Structure (SMILES): NC(N)=Nc1nc(CSCCC(N)=NS(N)(=O)=O)cs1 [FAMOTIDINE, famotidine, reference compound]
- IC80 ([1]; HEK293): 330 µM
- pIC50 [1]: 4.17
- OCT3 inhibition activity (in words) ([2]; listed as Famotidine): strong OCT3 inhibition activity
- OCT3 inhibition activity (in words) ([2]; listed as famotidine): strong OCT3 activity inhibition action
- remaining activity at 10 µM ([3]; HEK293, 1 min, no inhibitor = 100%, read-out: Histamine Incorporation Rate to Control (%)): 92.4%
- inhibition at 10 µM ([3]; HEK293, 100% minus histamine incorporation rate): 7.6%
- antidepressant activity [4]: antidepressant activity is confirmed

Structure (SMILES): CN(C)CCCN1c2ccccc2CCc2ccccc21 [imipramine]
- average of the akinesis time [5]: about 200 seconds

— US9745274B2, “Compound, organic cation transporter 3 detection agent, and organic cation transporter 3 activity inhibitor” (SHIN NIPPON BIOMEDICAL LABORATORIES, LTD., priority 2013, dated 2017)
